We go through one compound from patent publication US7135590B2, “Gallic acid derivative and process of preparing the same” (Council of Scientific and Industrial Research, priority 2003, dated 2006).

For data set [1], the system named is Bacopa monnieri. Description: Growth promoting activity using Bacopa sensor system. The format is in vivo. As for the experimental part:
For testing the growth promoting effect of methanone-(3′,4′,5′-trimethoxy) phenyl, 1-naphthyl, 2-O-4″-ethyl but-2″-enoate, the compounds was dissolved in DMSO and added into the medium at 1.0 μg/ml. Only solvent was used as a control in the experiment for comparison. A fast propagating strain of Bacopa monnieri developed as a biosensor system through tissue culture at CIMAP (Khanuja et al., 2001, J Environa Pathol, Toxicol and Onco (JEPTO), 20:pp. 15 to 22) was used in the tests. The MS basal medium (Murashige and Skoog, 1962, Physiol. Planta. 15: pp. 473 to 497) supplemented with test compounds was used in the assays. Measured 0.5 to 1.0 ml medium was poured into 1.5 ml graduated microcentrifuge tubes. Twig cuttings of 2.5 cm were inoculated in 10 replicates for each treatment. These inoculated tubes were put into a half transparent desiccator allowing air passage through sterile cotton plugs fixed on opening vent. The tubes were placed such that the medium-containing portion of the tubes where roots would be initiating is inserted in to the holes of the stand made from a thermocol sheet. These desiccators were incubated at normal ambient temperature of 25 to 28° C. with 14 hours light and 10 hours dark cycle. The root initiation, shoot elongation, callus induction, shoot proliferation and wilting was recorded from day 2 to 14 every 24 hours.

The test system of data set [2] is Mentha arvensis. The data set is described as follows: Growth promoting activity with Mentha arvensis internode explants. The format is in vivo. As for the experimental part: To confirm the growth promoting activity of methanone-(3′,4′,5′-trimethoxy) phenyl, 1-naphthyl, 2-O-4″-ethyl but-2″-enoate, it was tested with a medicinal and aromatic plant species Mentha arvensis. The explants used were 0.5 cm long pieces of the second and third internodes of the shoots formed from axillary buds and culture. The internode segments were inoculated in MS basal media (Murashige and Skoog, 1962, Physiol. Planta. 15: pp. 473 to 497) containing vitamins 100 μg/ml, myo-inositol 3%, w/v, sucrose 1.5% w/v, Agar and different concentrations of auxins and cytokinin. Different concentrations of 1-naphthalene acetic acid (NM) (0.0, 0.2, 2.0 μg/ml) were used in combination with different concentrations of 6 benzyl amino purine (BAP) (0, 10 & 5 μg/ml). On each kind of media […] of the explants were inoculated into three petriplates with each plates containing 4 explants. Compound 1 was serially replaced with each concentration of NM and BAP individually to observe its growth promoting activity. The experiment was arranged in the form of a completely randomized design (CRD).
Cultures were maintained at 25±2° C. and 400 to 600 lux light intensity with 16 h photoperiod. The response of explants was recorded every 24 h over 4 week periods. […] The proportional increase in biomass was recorded by taking the fresh weight of the growing tissue during sub culturing and dividing the increase with the initial weight.
At the end of 12 weeks from inoculation the shoots were separated and individually transferred to MS basal media containing vitamins for rooting. The rooted plantlets were subsequently transferred to pods in a green house.
The basal medium for studying the response was MS 0 (Murashige and Skoog, 1962, Physiol. Planta. 15: pp. 473 to 497) supplemented with 0.2 mg/L IAA (indole acetic acid) and 5 mg/L BAP (benzene amino purine).
The basal medium for studying the response was MS 0 (Murashige and Skoog, 1962, Physiol. Planta. 15: pp. 473 to 497) supplemented with 2mg/L IAA (indole acetic acid) and 10 mg/L BAP (benzene amino purine).

On to `CCOC(=O)C=CCOc1ccc2ccccc2c1C(=O)c1cc(OC)c(OC)c(OC)c1` [Compound 1, methanone-(3′,4′,5′-trimethoxy) phenyl, 1-naphthyl 2-O-4″-ethyl but-2″-enoate], for which the “Shoot Elongation” value in data set [1] (1.0 μg/ml in MS basal medium, 2.5 cm twig cuttings, 10 replicates, recorded day 2 to 14, control 1.0) stood at 1.6 cms. Further, the “Browning Yellowing Death” value in data set [1] (1.0 μg/ml in MS basal medium, twig cuttings, day 2 to 14) was “Nil”. The “Root Elongation” value in data set [1] (1.0 μg/ml in MS basal medium, twig cuttings, day 2 to 14, control 0.8) was 0.8 cms. In addition, the Branching in data set [1] (1.0 μg/ml in MS basal medium, twig cuttings, day 2 to 14, control 2.0) was 2.0 nos. Moreover, the “Number of Roots” value in data set [1] (1.0 μg/ml in MS basal medium, twig cuttings, day 2 to 14, control 2 + 2) is given as 2 + 2 nos. In addition, the “Number of Leaves” value in data set [1] (1.0 μg/ml in MS basal medium, twig cuttings, day 2 to 14, control 5.0) is on record as 11.0 nos. Also, the “enhances the shoot elongation” value in data set [1] (within 15 days) was “about 1.6 cm”. Moreover, the “Number of shoots observed after three weeks” value is on record as 1–2 shoots shoots per explant in data set [2] (Medium A2 with IAA replaced: BAP 5.0, Compound 1 0.2, no roots) and 3–4 shoots shoots per explant in data set [2] (Medium A3 with IAA replaced: BAP 10.0, Compound 1 2.0, single root in one replication). For the same compound, the shoots produced in data set [2] (within three weeks in medium A3) is 3 to 4 shoots.
